Reference: patent US10435396B2, “2-substituted indazoles, methods for producing same, pharmaceutical preparations that contain same, and use of same to produce drugs” (Bayer Pharma Aktiengesellschaft, priority 2016, dated 2019)
Like-named read-outs stand apart in the source and are kept apart here.

Key:
[1] = test system: secretion of TNF-α in THP-1 cells; assay: TNF-α secretion in THP-1 cells (LPS-triggered); type: cell-based, human; conditions: LPS 0.05 μg/ml, read-out: IC50 with respect to the secretion of TNF-α in THP-1 cells
Procedure: TNF-α Secretion in THP-1 Cells
With the aid of this test, it is possible to test substances for their ability to inhibit secretion of TNF-α (tumour necrosis factor alpha) in THP-1 cells (human monocytic acute leukaemia cell line). TNF-α is a cytokine involved in inflammatory processes. In this test, TNF-α secretion is triggered by incubation with bacterial lipopolysaccharide (LPS).
THP-1 cells are kept in continuous suspension cell culture [RPMI 1460 medium with L-Glutamax (Gibco, Cat No. 61870-044) supplemented with foetal calf serum (FCS) 10% (Invitrogen, Cat No. 10082-147), 1% penicillin/streptomycin (Gibco BRL, Cat No. 15140-114)] and should not exceed a cell concentration of 1×10^6 cells/ml. The assay is carried out in cell culture medium (RPMI 1460 medium with L-Glutamax supplemented with FCS 10%).
In each case 2-2.5 μl of the cell suspension (corresponds to 4000 cells) per well were dispensed into a 384-well test plate (Greiner, Cat No. 784076), in each of which 40-50 nl substance had been dissolved in 100% DMSO. This was done using […] in the range from 20 μM to 0.073 nM for each substance. The cells were incubated at room temperature for 15 min. 2-2.5 μl of 0.1 μg/ml LPS (Sigma, Escherichia coli 055:B5, Cat. No. L5418) dissolved in cell culture medium (final concentration 0.05 μg/ml) were then dispensed into each well. As neutral control, cells were treated with 0.05 μg/ml LPS and 1% DMSO and, as inhibitor control, with 1% DMSO only.
The plates were centrifuged at 80 g for 30 s and incubated at 37° C., 5% CO2 and 95% atmospheric humidity for 17 h. The amount of TNF-α was determined using the TNF-alpha HTRF Detection Kit (Cisbio, Cat No. 62TNFPEB/C). To this end, 2 μl of the detection solution in each case, consisting of anti-TNF-α-XL665 conjugate and anti-TNF-α-cryptate conjugate dissolved in the reconstitution buffer in accordance with the manufacturer's instructions, were added for the HTRF (Homogeneous Time-Resolved Fluorescence) test. After the addition, the mixture was incubated either at room temperature for 3 h or at 4° C. overnight. The signals were then read at 620/665 nm using an HTRF-enabled measuring instrument such as the BMG PheraStar.
The activity of the substances is expressed as the ratio between neutral and inhibitor control in percent. The IC50 values were calculated using a 4-parameter fit.

[2] = test system: NF-kB activity in TMD-8-NF-kB-luc cells; assay: NF-kB reporter assay; type: cell-based, human; conditions: 6 h, One-Glo, read-out: IC50 with respect to the inhibition of NF-kB activity in TMD-8-NF-kB-luc cells
Procedure: NF-kB Reporter Assay The effect of the inventive compounds of the general formula (I) on the NF-kB signalling pathway was examined in vitro in human DLBCL cells (see Table 4). 10 000 TMD-8-NF-kB-luc reporter cells at 30 μl/cavity in growth medium (RPMI (Biochrom: FG 1215), 20% FCS (Biochrom: S 0615)) were transferred into a 384-cavity plate (Perkin Elmer, white) and incubated at 37° C. overnight. After 24 h, the cells were treated with the test substances and incubated at 37° C. for 6 h. The test substances were added to the cells in a 7-stage, 3-fold dilution series using an HP D300 digital dispenser. As control, the cells were treated with the vehicle (DMSO). After 6 h, the cells were treated with 30 μl/well One-Glo solution (Promega, E6110) and incubated at room temperature for 10 min, and the luminescence was measured using a VICTOR V (Perkin Elmer) in order to determine the NF-kB reporter activity at the end of the treatment. The percentage effect of the NF-kB reporter activity and the IC50 derived therefrom were determined for each test substance with the aid of the values for an NF-kB pathway inhibitor (I-kappa B kinase inhibitor) (−)-7-[2-(cyclopropylmethoxy)-6-hydroxyphenyl]-5-[(3S)-3-piperidinyl]-1,4-dihydro-2H-pyrido[2,3-d][1,3]oxazin-2-one (CAS Number 600734-02-9; see WO 2003076447) (=maximum inhibition) and the DMSO control (=minimum inhibition). The IC50 values were calculated using a 4-parameter fit.

human PBMCs = assay: In vitro LPS-induced cytokine production in human PBMCs; type: cell-based; conditions: 0.1 μg/ml LPS, 24 hours
Procedure: In Vitro LPS (Lipopolysaccharide)-Induced Cytokine Production in Human PBMCs (Peripheral Blood Mononuclear Cells)
The effect of the inventive compounds of the general formula (I) on induced cytokine production in human PBMCs was examined. Cytokine production was induced here by LPS, a TLR4 ligand, which leads to activation of the IRAK4-mediated signal path.
The human PBMCs were obtained from anti-coagulated human whole blood. To this end, 15 ml of Ficoll-Paque (Biochrom, Cat. No. L6115) were initially charged in Leucosep tubes and 20 ml of human blood were added. After centrifugation of the blood at 800 g for 15 min at room temperature, the plasma including the platelets was removed and discarded. The PBMCs were transferred into centrifugation tubes and made up with PBS (phosphate-buffered saline) (Gibco, Cat. No. 14190). The cell suspension was centrifuged at room temperature at 250 g for 10 min and the supernatant was discarded. The PBMCs were resuspended in complete medium (RPMI 1640, without L-glutamine (PAA, Cat. No. E15-039), 10% FCS; 50 U/ml penicillin, 50 μg/ml streptomycin (PAA, Cat. No. P11-010) and 1% L-glutamine (Sigma, Cat. No. G7513)).
The assay was also carried out in complete medium. The PBMCs were sown in 96-well plates at a cell density of 2.5×10^5 cells/well. The compounds according to the invention were subjected to serial dilution in a constant volume of 100% DMSO and used in the assay at 8 different concentrations in the range from 10 μM to 3 nM such that the final DMSO concentration was 0.4% DMSO. Prior to the actual stimulation, the cells were then pre-incubated therewith for 30 min. […] Cell viability was determined using the CellTiter-Glo luminescent assay (Promega, Cat. No. G7571 (G755/G756A)) in accordance with the manufacturer's instructions. The amount of secreted TNF-α in the cell culture supernatant was determined using the Human ProInflammatory 9-Plex Tissue Culture Kit (MSD, Cat. No. K15007B) in accordance with the instructions of the manufacturer. […]

COc1cc2nn(C3CC[S+]([O-])CC3)cc2cc1NC(=O)c1cccc(C(F)(F)F)n1 (racemic) [Example 12, rac-N-[6-Methoxy-2-(1-oxidotetrahydro-2H-thiopyran-4-yl)-2H-indazol-5-yl]-6-(trifluoromethyl)pyridine-2-carboxamide] showed an IC50 ([1]; Homo sapiens, THP-1, 17 h) of 100 nM and an IC50 ([2]; Homo sapiens) of 6810 nM.
With COc1cc2nn([C@@H]3C[C@@H]4C[C@H]3CN4C)cc2cc1NC(=O)c1cccc(C(F)(F)F)n1 (relative stereo) [Example 18, rel-N-{6-Methoxy-2-[(1S,4S,5R)-2-methyl-2-azabicyclo[2.2.1]hept-5-yl]-2H-indazol-5-yl}-6-(trifluoromethyl)pyridine-2-carboxamide] the IC50 ([1]; Homo sapiens, THP-1, 17 h) was 60 nM and the IC50 ([2]; Homo sapiens) was 5520 nM.
COc1cc2nn(C3CCS(=N)(=O)CC3)cc2cc1NC(=O)c1cccc(C(F)(F)F)n1 (single isomer, unassigned) [Example 20, N-[2-(1-Imino-1-oxidohexahydro-1λ^4-thiopyran-4-yl)-6-methoxy-2H-indazol-5-yl]-6-(trifluoromethyl)pyridine-2-carboxamide] gave an IC50 ([1]; 17 h) of 60 nM and an IC50 [2] of 21800 nM.
COc1cc2nn(C3CCS(=N)(=O)CC3)cc2cc1NC(=O)c1cccc(C(F)(F)F)n1 (single isomer, unassigned) [Example 21, N-[2-(1-Imino-1-oxidohexahydro-1λ^4-thiopyran-4-yl)-6-methoxy-2H-indazol-5-yl]-6-(trifluoromethyl)pyridine-2-carboxamide] gave an IC50 ([1]; 17 h) of 170 nM and an IC50 [2] of 5190 nM.
COc1cc2nn(C3CCOCC3)cc2cc1NC(=O)c1cccc(C(F)(F)F)n1 [Example 1, N-[6-Methoxy-2-(tetrahydro-2H-pyran-4-yl)-2H-indazol-5-yl]-6-(trifluoromethyl)pyridine-2-carboxamide] gave an IC50 ([1]; Homo sapiens, THP-1, 17 h) of 210 nM and an IC50 ([2]; Homo sapiens) of 15600 nM.
In the case of COc1cc2nn(C3CCNCC3)cc2cc1NC(=O)c1cccc(C(F)(F)F)n1 [Example 2, N-[6-Methoxy-2-(piperidin-4-yl)-2H-indazol-5-yl]-6-(trifluoromethyl)pyridine-2-carboxamide], the IC50 ([1]; Homo sapiens, THP-1, 17 h) is reported as 130 nM and the IC50 ([2]; Homo sapiens) is reported as 9450 nM.
COc1cc2nn(C3CCN(C)CC3)cc2cc1NC(=O)c1cccc(C(F)(F)F)n1 [Example 4, N-[6-Methoxy-2-(1-methylpiperidin-4-yl)-2H-indazol-5-yl]-6-(trifluoromethyl)pyridine-2-carboxamide] gave an IC50 ([1]; Homo sapiens, THP-1, 17 h) of 140 nM and an IC50 ([2]; Homo sapiens) of 7410 nM.
In the case of COc1cc2nn(C3CCN(C(=O)CO)CC3)cc2cc1NC(=O)c1cccc(C(F)(F)F)n1 [Example 5, N-[2-(1-Glycoloylpiperidin-4-yl)-6-methoxy-2H-indazol-5-yl]-6-(trifluoromethyl)pyridine-2-carboxamide], the IC50 ([1]; Homo sapiens, THP-1, 17 h) is reported as 210 nM and the IC50 ([2]; Homo sapiens) is reported as 5100 nM.
Work on COc1cc2nn(C3CCN(C4COC4)CC3)cc2cc1NC(=O)c1cccc(C(F)(F)F)n1 [Example 10, N-{6-Methoxy-2-[1-(oxetan-3-yl)piperidin-4-yl]-2H-indazol-5-yl}-6-(trifluoromethyl)pyridine-2-carboxamide] yielded an IC50 ([1]; Homo sapiens, THP-1, 17 h) of 170 nM and an IC50 ([2]; Homo sapiens) of 28900 nM.
COc1cc2nn(C3CCN(CCO)CC3)cc2cc1NC(=O)c1cccc(C(F)(F)F)n1 [Example 13, N-{2-[1-(2-Hydroxyethyl)piperidin-4-yl]-6-methoxy-2H-indazol-5-yl}-6-(trifluoromethyl)pyridine-2-carboxamide] was tested, and the IC50 ([1]; Homo sapiens, THP-1, 17 h) was 140 nM and the IC50 ([2]; Homo sapiens) was 5100 nM.
COc1cc2nn(C3CCOCC3)cc2cc1NC(=O)c1cccc(C(F)F)n1 [Example 23, 6-(Difluoromethyl)-N-[6-methoxy-2-(tetrahydro-2H-pyran-4-yl)-2H-indazol-5-yl]pyridine-2-carboxamide] gave an IC50 ([1]; Homo sapiens, THP-1, 17 h) of 230 nM and an IC50 ([2]; Homo sapiens) of 3840 nM.
COc1cc2nn(C3CCOCC3)cc2cc1NC(=O)c1cccc(N2CCOCC2)n1 [Example 24, N-[6-Methoxy-2-(tetrahydro-2H-pyran-4-yl)-2H-indazol-5-yl]-6-(morpholin-4-yl)pyridine-2-carboxamide] was tested, and the IC50 ([1]; Homo sapiens, THP-1, 17 h) was 170 nM and the IC50 ([2]; Homo sapiens) was 22600 nM.
COc1cc2nn(C3CCOCC3)cc2cc1NC(=O)c1cccc(C(C)(C)O)n1 [Example 28, 6-(2-Hydroxypropan-2-yl)-N-[6-methoxy-2-(tetrahydro-2H-pyran-4-yl)-2H-indazol-5-yl]pyridine-2-carboxamide] gave an IC50 ([1]; Homo sapiens, THP-1, 17 h) of 410 nM and an IC50 ([2]; Homo sapiens) of 2680 nM.
For CC(C)(O)c1cc2nn(C3CCS(=O)(=O)CC3)cc2cc1NC(=O)c1cccc(C(F)(F)F)n1 [Example 44, N-[2-(1,1-Dioxidotetrahydro-2H-thiopyran-4-yl)-6-(2-hydroxypropan-2-yl)-2H-indazol-5-yl]-6-(trifluoromethyl)pyridine-2-carboxamide], the IC50 ([1]; Homo sapiens, THP-1, 17 h) was 170 nM, the IC50 ([2]; Homo sapiens) was 14600 nM and the “activity (secreted TNF-α, LPS-induced cytokine production in human PBMCs)” value (human PBMCs) was at most 1 µM.
In the case of CC(C)(O)c1cc2nn(C3CCNCC3)cc2cc1NC(=O)c1cccc(C(F)(F)F)n1 [Example 46, N-[6-(2-Hydroxypropan-2-yl)-2-(piperidin-4-yl)-2H-indazol-5-yl]-6-(trifluoromethyl)pyridine-2-carboxamide], the IC50 ([1]; Homo sapiens, THP-1, 17 h) is reported as 90 nM, the IC50 ([2]; Homo sapiens) is reported as 13400 nM and the “activity (secreted TNF-α, LPS-induced cytokine production in human PBMCs)” value (human PBMCs) is reported as at most 1 µM.
